PubChem BioAssay (NCI)
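Step 1: Grow cells in 96-well plates. Step 2: Expose to compound for 48 hours at 5 concentrations. Step 3: Interpolate endpoints linearly; if unreached, use highest concentration. TGI marks complete inhibition of growth.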

Key:
Assay in all cases: NCI tumour cell line growth inhibition, 48 h
[1] = test system: HCT-116 colon
[2] = test system: DLD-1 colon
[3] = test system: XF 498 CNS
[4] = test system: SNB-78 CNS
[5] = test system: NCI-H23 lung
[6] = test system: LXFL 529 NSCLC
[7] = test system: DMS 114 small cell lung
[8] = test system: RXF-631 renal
[9] = test system: KM12 colon
[10] = test system: M19-MEL melanoma
[11] = test system: SR leukemia
[12] = test system: SN12C renal
[13] = test system: KM20L2 colon
[14] = test system: OVCAR-8 ovarian
[15] = test system: DMS 273 small cell lung
[16] = test system: HOP-18 NSCLC
[17] = test system: P388/ADR leukemia
[18] = test system: P388 leukemia

| SMILES | TGI [1] [µM] | TGI [2] [µM] | TGI [3] [µM] | TGI [4] [µM] | TGI [5] [µM] | TGI [6] [µM] | TGI [7] [µM] | TGI [8] [µM] | TGI [9] [µM] | TGI [10] [µM] | TGI [11] [µM] | TGI [12] [µM] | TGI [13] [µM] | TGI [14] [µM] | TGI [15] [µM] | TGI [16] [µM] | TGI [17] [µM] | TGI [18] [µM] |
| --- | --- | --- | --- | --- | --- | --- | --- | --- | --- | --- | --- | --- | --- | --- | --- | --- | --- | --- |
| COC(=O)C(=O)Cc1nc2ccccc2o1 | > 100 | > 100 | > 100 | > 100 | > 100 | > 100 | > 100 | > 100 | > 100 | > 100 | > 100 | > 100 |  |  |  |  |  |  |
| O=C1c2ccccc2N2OC3(N4CCCC4)CCCCC3C12c1ccccc1 (stereo unspecified) | 27.6 | 46.3 | 41.1 | 33.9 | 86 | 27.7 | 28.4 |  |  | 22 | > 100 | 30.5 | > 100 | 32.9 | 30.9 | > 100 |  |  |
| O=C1N[C@@H]2C(=C[C@H](O)[C@@H](O)[C@H]2O)c2cc3c(c(O)c21)OCO3 | 0.0569 | 0.0751 | 0.0541 | 0.399 | 0.129 |  |  |  | 0.405 | 0.0771 |  | 0.122 | 0.315 | 0.0613 | 0.145 | 0.281 | 0.45 | 0.969 |
| CN1CCN(P2(=S)Oc3ccc4ccccc4c3-c3c(ccc4ccccc34)O2)CC1 | > 100 | > 100 | 67.3 | > 100 | > 100 |  | > 100 |  | 51.1 | > 100 |  | > 100 | > 61.7 | > 100 | 73 | > 100 | > 95.5 | > 68 |
| CCOC(=O)c1c[nH]c2ccc3c(c2c1=O)S(=O)(=O)CC3 (tested in a mixture with another compound) | > 100 | > 100 | > 100 | > 100 | > 100 |  | > 100 |  | > 100 | > 100 |  | > 100 | > 100 | > 100 | > 100 | > 100 | > 100 | > 100 |
| CCCCCCCCCCCC[N+](CCCCCCCCCCCC)=C1SCCS1 | 10.9 | 21.2 |  | 14.6 | 9.05 | 14 | 3.58 | 52.2 |  | 8.43 | 15.2 | 14.6 | 18.4 | 8.33 | 11.4 | 30 |  |  |
| O=C1NC2CCCCCC2C12CCCCC2 (stereo unspecified) | > 100 | > 100 | > 100 | > 100 | > 100 | > 100 | > 100 | > 100 | > 100 | > 100 | > 100 | > 100 | > 100 |  |  |  |  |  |
| O=NN(CCF)C(=O)NC1CCSCC1 | > 100 | > 100 |  | > 100 | > 100 |  | > 100 |  | > 100 | > 100 |  | > 100 | > 100 | > 100 | > 100 | > 100 | > 100 | > 100 |
